Each structure is given as a SMILES string.

These results are taken from patent US20220202739A1, “ENDOCANNABINOID MIMETIC AND ANTI-INFLAMMATORY COMPOUND CONTAINING COMPOSITIONS, METHODS OF PREPARATION AND USES THEREOF” (priority 2019, published 2022).

Common to all, as to format: cell-based, human
What all share (settings): pooled keratinocytes, 20 ppm, 24 hr

The test system of one experiment is KLF4. Kind of experiment: Gene expression custom microarray, pooled keratinocyte line (Example 3): KLF4. The protocol:
(§1) Cell cultures: Received and began culture of pooled keratinocyte line from Promocell (C-12006; Lot #448Z026). Cells were seeded into a 75 cm2 flask and 2 6 well dishes for expansion and exposure per manufacturer's protocol using Keratinocyte Growth Medium (C2011B), Keratinocyte Supplement Mix (C39016) and CaCl (C34005). 2 ml of prepared solution were added to each of the 6 wells and 7 ml was added to the 75 cm2 flask.
(§2) Experimental phase: When the appropriate quantity of cells were grown, they were detached as described above, but at the final step were seeded into each well of one or more 6 well dishes. Each well received 2 ml of the cells suspended in suspension so they were seeded equally. The dishes were returned to the incubator until 85-95% confluency is reached.
(§3) It was at this stage that all wells were rinsed in PBS after aspirating the growth media. The compound(s) to be tested were previously mixed into a suitable solvent (e.g., DMSO or ethanol) that can be diluted to the desired concentration of test compound (10 μl) in the culture wells without exceeding maximum solvent concentrations and adversely effecting cell viability, and mixed with Basal Keratinocyte Media. NOTE: Standard maximum levels of solvent are 0.1% for DMSO and 0.5% for ETOH. The concentration for each tested compound/natural extract is generally listed in the left-hand column of Table 4. For certain compositions (e.g., compositions 15 and 16), other concentrations were used and are noted in the body of Table 4.
(§4) Every 2 wells on the 6 well plate served as a biological replicate for the purposes of RNA isolation and genetic expression evaluations making each 6 well dish an n=3 for the test compound contained in the media. […]
(§5) At the end of the 24 hr time period, the plates were removed from the incubator, the test media aspirated, and the cells rinsed with PBS. […] Allow 1 minute for saturation of the membrane and then centrifuge for 2 minutes to complete the RNA elution. • Quantify the quantity of RNA and store at −20 C° until use (no more than 1 month) […]

In another experiment the test system is ITGB1. Kind of experiment: Gene expression custom microarray, pooled keratinocyte line (Example 3): ITGB1. The protocol:
as §1, §2, §3, §4, §5

The test system of the next experiment is CERS3. In words: Gene expression custom microarray, pooled keratinocyte line (Example 3): CERS3. The protocol: as §1, §2, §3, §4, §5
For a further experiment, the system named is JUN. Kind of experiment: Gene expression custom microarray, pooled keratinocyte line (Example 3): JUN. The protocol:
as §1, §2, §3, §4, §5

Take `C=C(C)[C@@H]1CCC(C)=C[C@H]1c1c(O)cc(CCCCC)cc1O` [CBD, cannabidiol, reference compound]: the “↑KLF4 gene expression, fold increase or decrease vs untreated cells” value in the experiment with KLF4 came out at 3.5 fold. Also, the “↑ITGB1 gene expression, fold increase or decrease vs untreated cells” value with ITGB1 amounted to 1.8 fold. Besides, the “↑CERS3 gene expression, fold increase or decrease vs untreated cells” value with CERS3 came to 1.7 fold. For the same molecule, in the experiment with JUN, the “↓JUN gene expression, fold increase or decrease vs untreated cells” value amounted to 2.7 fold.

Regarding `CC(C)[C@]12O[C@H]1[C@@H]1O[C@]13[C@]1(O[C@H]1C[C@H]1C4=C(CC[C@@]13C)C(=O)OC4)[C@@H]2O` [Triptolide], in the experiment with KLF4, the “↑KLF4 gene expression, fold increase or decrease vs untreated cells” value turned out to be 1.5 fold. In addition, the “↑ITGB1 gene expression, fold increase or decrease vs untreated cells” value in the experiment on ITGB1 is −14.7 fold. For the same molecule, the “↑CERS3 gene expression, fold increase or decrease vs untreated cells” value with CERS3 is −1.5 fold. Besides, the “↓JUN gene expression, fold increase or decrease vs untreated cells” value in the experiment with JUN is recorded as −4.7 fold.

With `CCCCCCCCCCCCCCCC(=O)NCCO` [N-palmitoylethanolamide], the “↑KLF4 gene expression, fold increase or decrease vs untreated cells” value with KLF4 is recorded as 1.7 fold. Besides, the “↑ITGB1 gene expression, fold increase or decrease vs untreated cells” value in the experiment with ITGB1 was −4 fold. Moreover, in the experiment on CERS3, the “↑CERS3 gene expression, fold increase or decrease vs untreated cells” value came out at 2 fold. For the same molecule, in the experiment on JUN, the “↓JUN gene expression, fold increase or decrease vs untreated cells” value was −1.9 fold.
